In PubChem BioAssay AID1963442 (Molecular Pharmacology Branch, DTP, NCI, 2024):
Where “and” joins values, the source holds several entries; their conditions need not be identical. Identical values can stand only once.

Tested on: MPNST complex spheroid with HUVEC/MSC, growth, % test/control
Assay: Anticancer human tumor MPNST cell line growth inhibition [Asc];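 further: compounds left on spheroids for seven days before reading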
Conditions: for viability, T/C: stronger effect = lower value
How it was run: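 Tumor cells were grown as multicellular spheroids with stromal HUVEC and mesenchymal stem cells and treated singly or in combination. Concentrations fell in half-log steps from the clinical Cmax, or from 10 microM where none was known.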

[1] = curve of first compound, second compound 0.1 µM
[2] = curve of first compound, second compound 0.316 µM
[3] = curve of first compound, second compound 1 µM
[4] = second compound 0.1 µM, first compound 0.0316 µM
[5] = second compound 0.1 µM, first compound 0.1 µM
[6] = second compound 0.1 µM, first compound 0.316 µM
[7] = second compound 0.1 µM, first compound 1 µM
[8] = second compound 0.316 µM, first compound 0.0316 µM
[9] = second compound 0.316 µM, first compound 0.1 µM
[10] = second compound 0.316 µM, first compound 0.316 µM
[11] = second compound 0.316 µM, first compound 1 µM
[12] = second compound 1 µM, first compound 0.0316 µM
[13] = second compound 1 µM, first compound 0.1 µM
[14] = second compound 1 µM, first compound 0.316 µM
[15] = second compound 1 µM, first compound 1 µM

C=CC(=O)N1CCN(c2nc(=O)n(-c3c(C)ccnc3C(C)C)c3nc(-c4c(O)cccc4F)c(F)cc23)C(C)C1 (stereo not given) + CCN1C(C(=O)NC23CCC(C(=O)O)(CC2)CC3)C(c2cccc(Cl)c2F)C2(C(=O)Nc3cc(Cl)ccc32)C12CCCCC2
IC50 (curve of first compound, second compound 0.03 µM): > 10000 nM | IC50 (curve of first compound, second compound 0.0949 µM): > 10000 nM | IC50 (curve of first compound, second compound 0.3 µM): > 10000 nM | IC50 (curve of first compound, second compound 0.949 µM): > 10000 nM | IC50 (curve of first compound, second compound 3 µM): > 10000 nM | viability, T/C (second compound 0.03 µM, first compound 0.0316 µM): 62.4% | viability, T/C (second compound 0.03 µM, first compound 0.1 µM): 76.1% | viability, T/C (second compound 0.03 µM, first compound 0.316 µM): 73.3% | viability, T/C (second compound 0.03 µM, first compound 1 µM): 87.7% | viability, T/C (second compound 0.03 µM, first compound 3.16 µM): 106% | viability, T/C (second compound 0.03 µM, first compound 10 µM): 108% | viability, T/C (second compound 0.0949 µM, first compound 0.0316 µM): 84.9% | viability, T/C (second compound 0.0949 µM, first compound 0.1 µM): 85.3% | viability, T/C (second compound 0.0949 µM, first compound 0.316 µM): 99.8% | viability, T/C (second compound 0.0949 µM, first compound 1 µM): 103% | viability, T/C (second compound 0.0949 µM, first compound 3.16 µM): 98.8% | viability, T/C (second compound 0.0949 µM, first compound 10 µM): 124% | viability, T/C (second compound 0.3 µM, first compound 0.0316 µM): 75.7% | viability, T/C (second compound 0.3 µM, first compound 0.1 µM): 85.3% | viability, T/C (second compound 0.3 µM, first compound 0.316 µM): 93.6% | viability, T/C (second compound 0.3 µM, first compound 1 µM): 94.5% | viability, T/C (second compound 0.3 µM, first compound 3.16 µM): 90.2% | viability, T/C (second compound 0.3 µM, first compound 10 µM): 101% | viability, T/C (second compound 0.949 µM, first compound 0.0316 µM): 77.7% | viability, T/C (second compound 0.949 µM, first compound 0.1 µM): 71% | viability, T/C (second compound 0.949 µM, first compound 0.316 µM): 90.6% | viability, T/C (second compound 0.949 µM, first compound 1 µM): 77.7% | viability, T/C (second compound 0.949 µM, first compound 3.16 µM): 81% | viability, T/C (second compound 0.949 µM, first compound 10 µM): 117% | viability, T/C (second compound 3 µM, first compound 0.0316 µM): 85.9% | viability, T/C (second compound 3 µM, first compound 0.1 µM): 76.5% | viability, T/C (second compound 3 µM, first compound 0.316 µM): 59% | viability, T/C (second compound 3 µM, first compound 1 µM): 75.8% | viability, T/C (second compound 3 µM, first compound 3.16 µM): 79.8% | viability, T/C (second compound 3 µM, first compound 10 µM): 89.1%

COc1c(OCCCN2CCOCC2)ccc2c3n(c(=NC(=O)c4cnc(N)nc4)nc12)CCN3
viability, T/C (compound 0.00316 µM): 84.8% and 70.3% and 54.3% | viability, T/C (compound 0.01 µM): 97% and 81% and 50.6% | viability, T/C (compound 0.0316 µM): 70.7% and 52.5% and 38.8% | viability, T/C (compound 0.1 µM): 39.8% and 39.5% and 13.7% | viability, T/C (compound 0.316 µM): 31.4% and 24.9% and 9.45% | viability, T/C (compound 1 µM): 24% and 18.9% and 5.21% | IC50 (curve of compound): 68.7 nM and 49.5 nM and 11.5 nM

NC(=O)C(=Cn1cnc(-c2cc(C(F)(F)F)cc(C(F)(F)F)c2)n1)c1cncnc1
viability, T/C (compound 0.000949 µM): 66.2% and 56.3% and 21.6% | viability, T/C (compound 0.003 µM): 90% and 89% and 18% | viability, T/C (compound 0.00949 µM): 81.3% and 73.5% and 18.6% | viability, T/C (compound 0.03 µM): 67.2% and 38.9% and 20.1% | viability, T/C (compound 0.0949 µM): 61.8% and 57.6% and 17.8% | viability, T/C (compound 0.3 µM): 53.9% and 40.3% and 22.3%

C#Cc1c(F)ccc2cc(O)cc(-c3ncc4c(N5CC6CCC(C5)N6)nc(OCC56CCCN5CC(F)C6)nc4c3F)c12 (stereo not given) + Cc1c(S(C)(=O)=O)c(-c2cc(F)cc(N3CCN(c4ccc(NS(=O)(=O)c5ccc(NC(CCN6CCC(C(=O)OCCCP(=O)(O)O)CC6)CSc6ccccc6)c(S(=O)(=O)C(F)(F)F)c5)cc4)CC3)c2)c(-c2ccc(Cl)cc2)n1C(C)C
IC50 [1]: > 10000 nM | IC50 [2]: > 10000 nM | IC50 [3]: > 10000 nM | IC50 (curve of first compound, second compound 3.16 µM): > 10000 nM | IC50 (curve of first compound, second compound 10 µM): > 10000 nM | viability, T/C [4]: 99.2% | viability, T/C [5]: 104% | viability, T/C [6]: 92.9% | viability, T/C [7]: 103% | viability, T/C (second compound 0.1 µM, first compound 3.16 µM): 99.9% | viability, T/C (second compound 0.1 µM, first compound 10 µM): 101% | viability, T/C [8]: 93.4% | viability, T/C [9]: 105% | viability, T/C [10]: 110% | viability, T/C [11]: 94.7% | viability, T/C (second compound 0.316 µM, first compound 3.16 µM): 91% | viability, T/C (second compound 0.316 µM, first compound 10 µM): 96.5% | viability, T/C [12]: 97% | viability, T/C [13]: 99.2% | viability, T/C [14]: 101% | viability, T/C [15]: 95.4% | viability, T/C (second compound 1 µM, first compound 3.16 µM): 93.4% | viability, T/C (second compound 1 µM, first compound 10 µM): 77% | viability, T/C (second compound 3.16 µM, first compound 0.0316 µM): 80.5% | viability, T/C (second compound 3.16 µM, first compound 0.1 µM): 91.2% | viability, T/C (second compound 3.16 µM, first compound 0.316 µM): 117% | viability, T/C (second compound 3.16 µM, first compound 1 µM): 101% | viability, T/C (second compound 3.16 µM, first compound 3.16 µM): 78.2% | viability, T/C (second compound 3.16 µM, first compound 10 µM): 71.8% | viability, T/C (second compound 10 µM, first compound 0.0316 µM): 121% | viability, T/C (second compound 10 µM, first compound 0.1 µM): 135% | viability, T/C (second compound 10 µM, first compound 0.316 µM): 118% | viability, T/C (second compound 10 µM, first compound 1 µM): 158% | viability, T/C (second compound 10 µM, first compound 3.16 µM): 108% | viability, T/C (second compound 10 µM, first compound 10 µM): 124%

O=C(c1ccc(F)c(F)c1Nc1ccc(I)cc1F)N1CC(O)([C@@H]2CCCCN2)C1 + CNC(C)C(=O)NC1CN(S(=O)(=O)c2cccc(S(=O)(=O)N3CCC4CCC(C(=O)NC(c5ccccc5)c5ccccc5)N4C(=O)C(NC(=O)C(C)NC)C3)c2)CCC2CCC(C(=O)NC(c3ccccc3)c3ccccc3)N2C1=O
IC50 (curve of first compound, second compound 0.00316 µM): 472 nM | IC50 (curve of first compound, second compound 0.01 µM): 781 nM | IC50 (curve of first compound, second compound 0.0316 µM): 858 nM | IC50 [1]: 922 nM | IC50 [2]: 868 nM | IC50 [3]: 892 nM | viability, T/C (second compound 0.00316 µM, first compound 0.00316 µM): 71% | viability, T/C (second compound 0.00316 µM, first compound 0.01 µM): 46.5% | viability, T/C (second compound 0.00316 µM, first compound 0.0316 µM): 82.4% | viability, T/C (second compound 0.00316 µM, first compound 0.1 µM): 65.1% | viability, T/C (second compound 0.00316 µM, first compound 0.316 µM): 66.1% | viability, T/C (second compound 0.00316 µM, first compound 1 µM): 19.9% | viability, T/C (second compound 0.01 µM, first compound 0.00316 µM): 107% | viability, T/C (second compound 0.01 µM, first compound 0.01 µM): 103% | viability, T/C (second compound 0.01 µM, first compound 0.0316 µM): 131% | viability, T/C (second compound 0.01 µM, first compound 0.1 µM): 134% | viability, T/C (second compound 0.01 µM, first compound 0.316 µM): 108% | viability, T/C (second compound 0.01 µM, first compound 1 µM): 34.2% | viability, T/C (second compound 0.0316 µM, first compound 0.00316 µM): 108% | viability, T/C (second compound 0.0316 µM, first compound 0.01 µM): 88.7% | viability, T/C (second compound 0.0316 µM, first compound 0.0316 µM): 110% | viability, T/C (second compound 0.0316 µM, first compound 0.1 µM): 126% | viability, T/C (second compound 0.0316 µM, first compound 0.316 µM): 77.6% | viability, T/C (second compound 0.0316 µM, first compound 1 µM): 45.8% | viability, T/C (second compound 0.1 µM, first compound 0.00316 µM): 86.9% | viability, T/C (second compound 0.1 µM, first compound 0.01 µM): 89.1% | viability, T/C [4]: 81.6% | viability, T/C [5]: 90.5% | viability, T/C [6]: 97.2% | viability, T/C [7]: 47% | viability, T/C (second compound 0.316 µM, first compound 0.00316 µM): 69.7% | viability, T/C (second compound 0.316 µM, first compound 0.01 µM): 67.3% | viability, T/C [8]: 65.5% | viability, T/C [9]: 134% | viability, T/C [10]: 87.7% | viability, T/C [11]: 45% | viability, T/C (second compound 1 µM, first compound 0.00316 µM): 70.1% | viability, T/C (second compound 1 µM, first compound 0.01 µM): 80.1% | viability, T/C [12]: 105% | viability, T/C [13]: 113% | viability, T/C [14]: 96% | viability, T/C [15]: 45.2%
